Source: patent US8916567B2, “Certain crystalline hydrates, pharmaceutical compositions thereof and methods for preparation and use thereof” (Universal Technology Alliance, Inc., priority 2009, dated 2014)
Values after ≈ are worked out from the molar mass of the structure shown.

Key:
Assay type in all cases: cell-based
Staphylococcus aureus = test: Minimum inhibitory concentration (MIC) in vitro, agar dilution method, quality control strain; conditions: Staphylococcus aureus, ATCC27853
Description: (§1) Hydrates Samples: • The 1/2 hydrates prepared according to Example 2; • Content (purity % wt): 99.0%; • The 1/12 hydrates prepared according to Example 253; • Content (purity % wt): 98.9%; • The 2/7 hydrates prepared according to Example 106; • Content (purity % wt): 98.8%; • The 2/5 hydrates prepared according to Example 162; • Content (purity % wt): 99.0%; • The 3/4 hydrates prepared according to Example 337; • Content (purity % wt): 98.8%; • Preparation: dissolved in DMSO, and further diluted with sterile distilled water to desired concentration. • The hydrates samples were supplied by Sichuan Beilike Biotechnology LTD.
(§2) Anhydrous Sample: • The anhydrous compounds prepared according to Example 1. • Content (purity % wt): 98.6%; • Preparation: dissolved in DMSO, and further diluted with sterile distilled water to desired concentration; • The anhydrous sample was supplied by Sichuan Beilike Biotechnology LTD.
(§3) Control Samples • Vancomycin: provided by Sichuan Beilike Biotechnology LTD, purchased from Eli Lilly Japan K.K. • Lot No.: WM16151 (production date: Apr. 10, 2007, expiration date: Apr. 9, 2009). • Specification: 500 mg/bottle; solubility (physicochemical properties): soluble in water. • Linezolid (LZ): provided by Sichuan Beilike Biotechnology LTD.
(§4) Bacteria Strains • Clinically isolated strains: clinically isolated bacterial pathogens collected in Sichuan and Beijing areas from March 2007 to May 2008. • Species include: Staphylococcus aureus MRSA, Staphylococcus aureus MSSA, S. epidermidis MRSE, S. epidermidis MSSE, E. feacalis, and E. feacium, a total of 51 strains. • Quality control strains: Staphylococcus aureus […] strain kept in Sichuan Industrial Institute of Antibiotics, purchased from the medical testing center of the Ministry of Health, China.
(§5) Experimental Method: • Measurement of the minimum inhibitory concentration (MIC) in vitro: • The minimum inhibitory concentration (MIC) of each test sample against test strains was measured by using the agar dilution method recommended by the U.S. National Committee for Clinical Laboratory Standards (CLSI/NCCIs).
(§6) Based on the CLSI/NCCL's testing standard with respect to vancomycin and linezolid (see Table 6), the minimum inhibitory concentration (MIC) values of every strain were reported, and the MIC50 (the concentration that inhibits 50% of the different strains of bacteria), MIC90 (the concentration that inhibits 90% of the different strains of bacteria), and MICrange (the range of the MIC value of the tested strains) were observed.

S. epidermidis MRSE = test: Minimum inhibitory concentration (MIC) in vitro, agar dilution method
Description: as §1, §2, §3, §4, §5, §6

S. epidermidis MSSE = test: as above
Description: as §1, §2, §3, §4, §5, §6

E. feacium = test: as above
Description: as §1, §2, §3, §4, §5, §6

[1] = test system: Staphylococcus aureus MRSA; test: as above
Description: as §1, §2, §3, §4, §5, §6

E. feacalis = test: as above
Description: as §1, §2, §3, §4, §5, §6

[2] = test system: Staphylococcus aureus MSSA; test: as above
Description: as §1, §2, §3, §4, §5, §6

[3] = Staphylococcus epidermidis, MRSE

CN[C@H](CC(C)C)C(=O)N[C@H]1C(=O)N[C@@H](CC(N)=O)C(=O)N[C@H]2C(=O)N[C@H]3C(=O)N[C@H](C(=O)N[C@H](C(=O)O)c4cc(O)cc(O)c4-c4cc3ccc4O)[C@H](O)c3ccc(c(Cl)c3)Oc3cc2cc(c3O[C@@H]2O[C@H](CO)[C@@H](O)[C@H](O)[C@H]2O[C@H]2C[C@](C)(N)[C@H](O)[C@H](C)O2)Oc2ccc(cc2Cl)[C@H]1O [Vancomycin, reference compound]
MIC (Staphylococcus aureus): 1 µg/mL (≈ 0.69 µM) | MICrange (S. epidermidis MRSE; S. ep MRSE (10 strains), clinically isolated): 0.25 to 1 µg/mL | MIC50 (S. epidermidis MRSE; [3]): 1 µg/mL (≈ 0.69 µM) | MIC90 (S. epidermidis MRSE; [3]): 1 µg/mL (≈ 0.69 µM) | MIC (S. epidermidis MRSE; Staphylococcus epidermidis, MRSE, strain S. ep MRSE4 (Table 8 No. 9)): 1 µg/mL (≈ 0.69 µM) | MIC (S. epidermidis MRSE; Staphylococcus epidermidis, MRSE, strain S. ep MRSE20 (Table 8 No. 6)): 1 µg/mL (≈ 0.69 µM) | MIC (S. epidermidis MRSE; Staphylococcus epidermidis, MRSE, strain S. ep MRSE87 (Table 8 No. 13)): 0.25 µg/mL (≈ 0.173 µM) | MIC (S. epidermidis MRSE; Staphylococcus epidermidis, MRSE, strain S. ep MRSE90 (Table 8 No. 10)): 1 µg/mL (≈ 0.69 µM) | MIC (S. epidermidis MRSE; Staphylococcus epidermidis, MRSE, strain S. ep MRSE101 (Table 8 No. 7)): 1 µg/mL (≈ 0.69 µM) | MIC (S. epidermidis MRSE; Staphylococcus epidermidis, MRSE, strain S. ep MRSE105 (Table 8 No. 11)): 0.5 µg/mL (≈ 0.345 µM) | MIC (S. epidermidis MRSE; Staphylococcus epidermidis, MRSE, strain S. ep MRSE140 (Table 8 No. 14)): 1 µg/mL (≈ 0.69 µM) | MIC (S. epidermidis MRSE; Staphylococcus epidermidis, MRSE, strain S. ep MRSE142 (Table 8 No. 12)): 0.5 µg/mL (≈ 0.345 µM) | MIC (S. epidermidis MRSE; Staphylococcus epidermidis, MRSE, strain S. ep MRSE210 (Table 8 No. 15)): 1 µg/mL (≈ 0.69 µM) | MIC (S. epidermidis MRSE; Staphylococcus epidermidis, MRSE, strain S. ep MRSE211 (Table 8 No. 8)): 0.5 µg/mL (≈ 0.345 µM) | MICrange (S. epidermidis MSSE; S. ep MSSE (10 strains), clinically isolated): 0.06 to 1 µg/mL | MIC50 (S. epidermidis MSSE; Staphylococcus epidermidis): 0.5 µg/mL (≈ 0.345 µM) | MIC90 (S. epidermidis MSSE; Staphylococcus epidermidis): 1 µg/mL (≈ 0.69 µM) | MIC (S. epidermidis MSSE; Staphylococcus epidermidis, strain S. ep MSSE87 (Table 7 No. 23)): 0.125 µg/mL (≈ 0.0863 µM) | MIC (S. epidermidis MSSE; Staphylococcus epidermidis, strain S. ep MSSE88 (Table 8 No. 5)): 1 µg/mL (≈ 0.69 µM) | MIC (S. epidermidis MSSE; Staphylococcus epidermidis, strain S. ep MSSE113 (Table 7 No. 24)): 0.5 µg/mL (≈ 0.345 µM) | MIC (S. epidermidis MSSE; Staphylococcus epidermidis, strain S. ep MSSE116 (Table 7 No. 25)): 0.125 µg/mL (≈ 0.0863 µM) | MIC (S. epidermidis MSSE; Staphylococcus epidermidis, strain S. ep MSSE118 (Table 8 No. 2)): 1 µg/mL (≈ 0.69 µM) | MIC (S. epidermidis MSSE; Staphylococcus epidermidis, strain S. ep MSSE119 (Table 7 No. 27)): 0.125 µg/mL (≈ 0.0863 µM) | MIC (S. epidermidis MSSE; Staphylococcus epidermidis, strain S. ep MSSE137 (Table 8 No. 4)): 1 µg/mL (≈ 0.69 µM) | MIC (S. epidermidis MSSE; Staphylococcus epidermidis, strain S. ep MSSE140 (Table 8 No. 3)): 0.5 µg/mL (≈ 0.345 µM) | MIC (S. epidermidis MSSE; Staphylococcus epidermidis, strain S. ep MSSE142 (Table 7 No. 26)): 0.06 µg/mL (≈ 0.0414 µM) | MIC (S. epidermidis MSSE; Staphylococcus epidermidis, strain S. ep MSSE153 (Table 8 No. 1)): 0.5 µg/mL (≈ 0.345 µM) | MIC50 (E. feacium): 4 µg/mL (≈ 2.76 µM) | MIC90 (E. feacium): 8 µg/mL (≈ 5.52 µM) | MICrange (E. feacium; E. feacium (5 strains), clinically isolated): 2 to 8 µg/mL | MIC (E. feacium; strain Efm 98 (Table 8 No. 21)): 4 µg/mL (≈ 2.76 µM) | MIC (E. feacium; strain Efm 171 (Table 8 No. 25)): 8 µg/mL (≈ 5.52 µM) | MIC (E. feacium; strain Efm 197 (Table 8 No. 22)): 4 µg/mL (≈ 2.76 µM) | MIC (E. feacium; strain Efm N3 (Table 8 No. 23)): 2 µg/mL (≈ 1.38 µM) | MIC (E. feacium; strain Efm N4 (Table 8 No. 24)): 8 µg/mL (≈ 5.52 µM) | MICrange ([1]; S. MRSA (10 strains), clinically isolated): 0.5 to 1 µg/mL | MIC50 ([1]; Staphylococcus aureus, MRSA): 1 µg/mL (≈ 0.69 µM) | MIC90 ([1]; Staphylococcus aureus, MRSA): 1 µg/mL (≈ 0.69 µM) | MIC ([1]; Staphylococcus aureus, MRSA, strain S. MRSA 29 (Table 7 No. 15)): 0.5 µg/mL (≈ 0.345 µM) | MIC ([1]; Staphylococcus aureus, MRSA, strain S. MRSA 101 (Table 7 No. 14)): 0.5 µg/mL (≈ 0.345 µM) | MIC ([1]; Staphylococcus aureus, MRSA, strain S. MRSA 201 (Table 7 No. 13)): 1 µg/mL (≈ 0.69 µM) | MIC ([1]; Staphylococcus aureus, MRSA, strain S. MRSA B27 (Table 7 No. 21)): 1 µg/mL (≈ 0.69 µM) | MIC ([1]; Staphylococcus aureus, MRSA, strain S. MRSA B105 (Table 7 No. 17)): 1 µg/mL (≈ 0.69 µM) | MIC ([1]; Staphylococcus aureus, MRSA, strain S. MRSA B143 (Table 7 No. 19)): 0.5 µg/mL (≈ 0.345 µM) | MIC ([1]; Staphylococcus aureus, MRSA, strain S. MRSA B151 (Table 7 No. 20)): 1 µg/mL (≈ 0.69 µM) | MIC ([1]; Staphylococcus aureus, MRSA, strain S. MRSA B164 (Table 7 No. 16)): 1 µg/mL (≈ 0.69 µM) | MIC ([1]; Staphylococcus aureus, MRSA, strain S. MRSA B199 (Table 7 No. 22)): 1 µg/mL (≈ 0.69 µM) | MIC ([1]; Staphylococcus aureus, MRSA, strain S. MRSA B617 (Table 7 No. 18)): 5 µg/mL (≈ 3.45 µM) | MIC50 (E. feacalis): 1 µg/mL (≈ 0.69 µM) | MIC90 (E. feacalis): 2 µg/mL (≈ 1.38 µM) | MICrange (E. feacalis; E. feacalis (5 strains), clinically isolated): 0.25 to 2 µg/mL | MIC (E. feacalis; strain Efa 54 (Table 8 No. 20)): 1 µg/mL (≈ 0.69 µM) | MIC (E. feacalis; strain Efa 116 (Table 8 No. 16)): 0.5 µg/mL (≈ 0.345 µM) | MIC (E. feacalis; strain Efa 907 (Table 8 No. 19)): 1 µg/mL (≈ 0.69 µM) | MIC (E. feacalis; strain Efa 3006 (Table 8 No. 18)): 2 µg/mL (≈ 1.38 µM) | MIC (E. feacalis; strain Efa 33748 (Table 8 No. 17)): 0.25 µg/mL (≈ 0.173 µM) | MICrange ([2]; S. MSSA (11 strains), clinically isolated): 0.5 to 1 µg/mL | MIC50 ([2]; Staphylococcus aureus, MSSA): 1 µg/mL (≈ 0.69 µM) | MIC90 ([2]; Staphylococcus aureus, MSSA): 1 µg/mL (≈ 0.69 µM) | MIC ([2]; Staphylococcus aureus, MSSA, strain S. MSSA 123 (Table 7 No. 3)): 0.5 µg/mL (≈ 0.345 µM) | MIC ([2]; Staphylococcus aureus, MSSA, strain S. MSSA 187 (Table 7 No. 7)): 0.5 µg/mL (≈ 0.345 µM) | MIC ([2]; Staphylococcus aureus, MSSA, strain S. MSSA 195 (Table 7 No. 6)): 1 µg/mL (≈ 0.69 µM) | MIC ([2]; Staphylococcus aureus, MSSA, strain S. MSSA 195 (Table 7 No. 12)): 1 µg/mL (≈ 0.69 µM) | MIC ([2]; Staphylococcus aureus, MSSA, strain S. MSSA 201 (Table 7 No. 11)): 1 µg/mL (≈ 0.69 µM) | MIC ([2]; Staphylococcus aureus, MSSA, strain S. MSSA 232 (Table 7 No. 2)): 0.5 µg/mL (≈ 0.345 µM) | MIC ([2]; Staphylococcus aureus, MSSA, strain S. MSSA 275 (Table 7 No. 10)): 1 µg/mL (≈ 0.69 µM) | MIC ([2]; Staphylococcus aureus, MSSA, strain S. MSSA 466 (Table 7 No. 8)): 0.5 µg/mL (≈ 0.345 µM) | MIC ([2]; Staphylococcus aureus, MSSA, strain S. MSSA 519 (Table 7 No. 9)): 1 µg/mL (≈ 0.69 µM) | MIC ([2]; Staphylococcus aureus, MSSA, strain S. MSSA 520 (Table 7 No. 4)): 0.5 µg/mL (≈ 0.345 µM) | MIC ([2]; Staphylococcus aureus, MSSA, strain S. MSSA 580 (Table 7 No. 5)): 1 µg/mL (≈ 0.69 µM)
